molecular target: recombinant USP30 (amino acids 57-517 of the human sequence) (Homo sapiens (Human), UniProt Q70CQ3); assay: In vitro USP30 biochemical assay (Ubiquitin-Rhodamine substrate); details: 1.5 nM recombinant USP30, 25 nM Ubiquitin-Rhodamine, fluorescence
Procedure: In vitro biochemical assay to establish the potency of compounds for USP30 inhibition: a 384-well plate assay using a fluorophore tagged substrate of USP30 was used for in vitro screening of compounds. Each compound was tested at
10 different concentrations (0.5 to 10,000 nM) in duplicate wells. […] Data were analyzed using Graph Pad Prism software with a four-parameter (floating slope) fit to log concentration data to determine IC50s.

Sequence of recombinant USP30 (amino acids 57-517 of the human sequence) (Q70CQ3 57-517): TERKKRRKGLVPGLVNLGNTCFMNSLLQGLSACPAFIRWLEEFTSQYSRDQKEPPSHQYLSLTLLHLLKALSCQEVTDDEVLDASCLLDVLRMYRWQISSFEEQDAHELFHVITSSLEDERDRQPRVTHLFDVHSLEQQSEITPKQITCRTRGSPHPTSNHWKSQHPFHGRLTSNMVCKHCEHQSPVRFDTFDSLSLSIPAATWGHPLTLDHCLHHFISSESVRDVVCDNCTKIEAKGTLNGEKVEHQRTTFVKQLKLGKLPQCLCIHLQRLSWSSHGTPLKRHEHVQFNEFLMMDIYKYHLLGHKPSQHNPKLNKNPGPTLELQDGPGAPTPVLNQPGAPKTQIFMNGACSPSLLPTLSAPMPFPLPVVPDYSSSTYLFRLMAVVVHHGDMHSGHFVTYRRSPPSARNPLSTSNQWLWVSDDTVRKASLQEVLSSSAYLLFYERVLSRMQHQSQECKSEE

IC50 [µM] | Structure (SMILES)
0.05 to 1 | CO[C@@H]1C[C@@H](C(=O)Nc2ccc(S(=O)(=O)N[C@@H]3CCOC3)cc2)N(C(=O)c2ccc(F)cc2)C1 [Compound I-277]
1 to 10 | CN1CCC(C[C@H](NC(=O)N2CCOCC2)C(=O)Nc2ccc(S(=O)(=O)NC(C)(C)C)cc2)CC1 [Compound I-217]
0.05 to 1 | Cn1nccc1CNS(=O)(=O)c1ccc(NC(=O)[C@H](CC2CCNCC2)NC(=O)c2ccc(F)cc2)cc1 [Compound I-224]
0.05 to 1 | COc1cc(NC(=O)[C@@H]2C[C@@H](c3ccccc3)CN2C(=O)c2ccc(F)cc2)ccc1S(=O)(=O)NC1COC1 [Compound I-265]
0.05 to 1 | CC(C)(C)NS(=O)(=O)c1ccc(NC[C@H](O)[C@H](Cc2ccncc2)NC(=O)c2ccc(F)cc2)cc1 [Compound I-236]
0.05 to 1 | CC(C)(C)NS(=O)(=O)c1ccc(NC(=O)[C@H](CC#N)NC(=O)c2ccc(F)cc2)cc1 [Compound I-243]
0.05 to 1 | CN1CCC(C[C@H](NC(=O)c2ccc(F)cc2)C(=O)Nc2ccc(S(=O)(=O)NC(C)(C)CF)cc2)CC1 [Compound I-127]
0.05 to 1 | COCC[C@H](NC(=O)c1ccc(F)cc1)C(=O)Nc1ccc(S(=O)(=O)NC(C)(C)CO)cc1 [Compound I-26]
1 to 10 | O=C(Nc1ccc(S(=O)(=O)N[C@@H]2CCOC2)nc1)[C@@H]1C[C@@H](c2ccccc2)CN1C(=O)c1ccc(F)cc1 [Compound I-270]
0.05 to 1 | CN1CCC(C[C@H](NC(=O)c2ccc(F)cc2)C(=O)Nc2ccc(S(=O)(=O)NC3CCOCC3)nc2)CC1 [Compound I-140]
1 to 10 | O=C(N[C@@H](Cc1ccccc1)C(=O)Nc1ccc(S(=O)(=O)NCc2nnc[nH]2)cc1)c1ccc(F)cc1 [Compound I-232]
0.05 to 1 | CC(C)(C)NS(=O)(=O)c1ccc(NC(=O)[C@H](CC2COC2)NC(=O)c2ccc(F)cc2)cc1 [Compound I-38, (S)—N-(1-((4-(N-(tert-butyl)sulfamoyl)phenyl)amino)-3-(oxetan-3-yl)-1-oxopropan-2-yl)-4-fluorobenzamide]
1 to 10 | O=C(N[C@@H](CC1CCOCC1)C(=O)Nc1cccc2c(S(=O)(=O)NC3COC3)cccc12)c1ccc(F)cc1 [Compound I-10]
1 to 10 | CN(C(=O)c1ccc(F)cc1)[C@@H](Cc1ccccc1)C(=O)Nc1ccc(S(=O)(=O)NCc2ccnn2C)cc1 [Compound I-229]
0.05 to 1 | CC(C)CC[C@H](NC(=O)c1ccc(F)cc1)C(=O)Nc1ccc(S(=O)(=O)NC2COC2)cc1 [Compound I-24]
0.05 to 1 | CC(C)C[C@H](NC(=O)c1ccc(F)cn1)C(=O)Nc1ccc(S(=O)(=O)NC(C)(C)C(F)(F)F)cc1 [Compound I-204]
0.05 to 1 | O=C(N[C@@H](Cc1ccccc1)C(=O)Nc1ccc(S(=O)(=O)NCc2ncccn2)cc1)c1ccc(F)cc1 [Compound I-228]
0.05 to 1 | CC(C)[C@H](NC(=O)c1ccc(F)cc1)C(=O)Nc1ccc(S(=O)(=O)NC(C)(C)C)cc1 [Compound I-206]
1 to 10 | CC(C)C[C@H](NC(=O)N1CCOCC1)C(=O)Nc1cccc2c(S(=O)(=O)NC(C)(C)C)cccc12 [Compound I-216]

same assay, conditions: […] recombinant USP30, 25 nM Ubiquitin-Rhodamine, fluorescence

IC50 [µM] | Structure (SMILES)
> 10 | O=C(N[C@@H](Cc1ccccc1)C(=O)N[C@@H]1CCNC1)c1ccc(F)cc1 [Compound I-146]
> 10 | CC(C)C[C@H](NC(=O)c1ccc(F)cc1)[C@@H](O)CNc1ccc(S(=O)(=O)NC(C)(C)C)cc1 [Compound I-220]
> 10 | CN1CC[C@@H](NC(=O)[C@H](Cc2ccccc2)NC(=O)c2ccc(F)cc2)C1 [Compound I-152]
> 10 | CC(C)C[C@@H](NC(=O)c1ccc(F)cc1)C(=O)Nc1ccc(S(=O)(=O)NC(C)(C)CCO)cc1 [Compound I-21, (R)-4-fluoro-N-(1-((4-(N-(4-hydroxy-2-methylbutan-2-yl)sulfamoyl)phenyl)amino)-4-methyl-1-oxopentan-2-yl)benzamide]
> 10 | CC(C)(C)NS(=O)(=O)c1ccc(NC(=O)[C@H](Cc2ccccc2)NC(=O)c2ncccn2)cc1 [Compound I-191]

From patent US20250162989A1, “USP30 INHIBITORS AND USES THEREOF” (Vincere Biosciences, Inc., priority 2021, published 2025)
